Where two headings read alike, the source gives them in different places.
Columns and labels:
[1] = system: B. ovis; assay: microbe, parasite or virus in culture; type: cell-based, Brucella ovis; conditions: for IC50: Brucella ovis
[2] = system: B. ovis; assay: microbe, parasite or virus in culture; type: cell-based, Brucella ovis; conditions: for IC50: Brucella ovis; remark: listed apart in the source
[3] = system: THP-1 cells; conditions: human
[4] = system: B. ovis; type: cell-based, Brucella ovis
[5] = system: B. abortus; type: cell-based, Brucella abortus
[6] = system: B. abortus; assay: microbe, parasite or virus in culture; type: cell-based; conditions: Brucella abortus, THP-1, 48 h, read-out: IC50, intracellular B. abortus in THP-1 cells
[7] = system: B. abortus; type: cell-based, Brucella abortus; remark: listed apart in the source
[8] = system: B. ovis; type: cell-based, Brucella ovis; remark: listed apart in the source
[9] = system: B. abortus; type: cell-based, Brucella abortus; remark: listed apart in the source
[10] = system: B. ovis; type: cell-based, Brucella ovis; remark: listed apart in the source
[11] = system: THP-1 macrophage-like cells; type: cell-based, human
[12] = system: B. abortus; type: cell-based
[13] = system: B. ovis; type: cell-based, Brucella ovis; remark: listed apart in the source
[14] = THP-1, read-out: Intracellular IC50
[15] = THP-1, 48 h, read-out: IC50 for inhibiting intracellular growth of B. ovis
[16] = 48 h, read-out: Axenic B. ovis IC50 (Fig 1B)

Structure (SMILES): N[C@@H]1C[C@H]1c1ccccc1 (racemic) [Tranylcypromine]
- IC50 [1, 14]: > 50 µM
- IC50 ([2]; read-out: Axenic IC50): > 50 µM
- CC50 [3]: > 50 µM

Structure (SMILES): O=C1CCc2ccc(OCCCCN3CCN(c4cccc(Cl)c4Cl)CC3)cc2N1 [Aripiprazole]
- CC50 [3]: 12 µM

Structure (SMILES): c1ccc(-c2ccc(C(c3ccccc3)n3ccnc3)cc2)cc1 (stereo not drawn) [Bifonazole]
- Outcome of validation assays [1]: inhibitors of intracellular replication that were not toxic to host cells
- IC50 [1, 14]: 14 µM
- IC50 ([2]; read-out: Axenic IC50): 4 µM
- CC50 [3]: > 50 µM

Structure (SMILES): C[C@H](CCC(=O)NCCC[N+](C)(C)CCCS(=O)(=O)[O-])[C@H]1CC[C@H]2[C@@H]3[C@H](O)C[C@@H]4C[C@H](O)CC[C@]4(C)[C@H]3C[C@H](O)[C@]12C [CHAPS]
- Sensitivity of wild-type B. ovis on TSA blood plates [4]: highly sensitive
- Effect of bepE disruption on B. abortus sensitivity on solid media [5]: did not affect sensitivity

Structure (SMILES): COCCOC(=O)C1=C(C)NC(C)=C(C(=O)OC/C=C/c2ccccc2)C1c1cccc([N+](=O)[O-])c1 (stereo not drawn) [Cilnidipine]
- Outcome of validation assays [1]: inhibitors of intracellular replication that were not toxic to host cells
- IC50 [1, 15]: 2.5 µM
- IC50 [1, 14]: 2 µM
- Concentrations giving complete growth inhibition of axenic B. ovis [2]: ≥ 10 µM
- IC50 [2, 16]: 5.09 µM
- IC50 ([2]; 48 h, read-out: Axenic IC50, B. ovis): ~5 µM
- IC50 ([2]; read-out: Axenic IC50): 5 µM
- IC50 [6]: 13.5 µM
- Sensitivity of WT B. abortus in axenic conditions [7]: insensitive
- Sensitivity of ∆bepE B. abortus in axenic conditions [7]: insensitive
- Growth of WT B. ovis in liquid culture [8]: failed to grow over 72 h
- Effect of bepE disruption on B. abortus sensitivity on solid media [5]: did not affect sensitivity
- Effect of bepE deletion on B. abortus sensitivity in THP-1 cells [9]: increase sensitivity
- Axenic inhibition in high-throughput screen [10]: < 35%
- CC50 [3]: > 50 µM
- THP-1 host cell viability [3]: does not affect THP-1 host cell viability

Structure (SMILES): OCCN(CCO)c1nc(N2CCCCC2)c2nc(N(CCO)CCO)nc(N3CCCCC3)c2n1 [Dipyridamole]
- IC50 [1, 14]: > 50 µM
- IC50 ([2]; read-out: Axenic IC50): > 50 µM
- CC50 [3]: 41 µM

Structure (SMILES): CCCCN(CCCC)CCC(O)c1cc2c(Cl)cc(Cl)cc2c2cc(C(F)(F)F)ccc12 (stereo not drawn) [Halofantrine]
- IC50 [1, 14]: > 50 µM
- IC50 ([2]; read-out: Axenic IC50): 11 µM
- CC50 [3]: > 50 µM

Structure (SMILES): COc1ccc(CN2CCN(C(c3ccc(F)cc3)c3ccc(F)cc3)CC2)c(OC)c1OC [Lomerizine]
- Outcome of validation assays [1]: inhibitors of intracellular replication that were not toxic to host cells
- IC50 [1, 14]: 9 µM
- IC50 ([2]; read-out: Axenic IC50): > 50 µM
- CC50 [3]: 50 µM

Structure (SMILES): COC(=O)C1=C(C)NC(C)=C(C(=O)OCCN(C)Cc2ccccc2)C1c1cccc([N+](=O)[O-])c1 (stereo not drawn) [Nicardipine]
- Outcome of validation assays [1]: inhibitors of intracellular replication that were not toxic to host cells
- IC50 [1, 15]: 2.3 µM
- IC50 [1, 14]: 2 µM
- Effect on terminal optical density of axenic B. ovis [2]: no effect on the terminal optical density at any concentration tested
- IC50 [2, 16]: > 25 µM
- IC50 ([2]; read-out: Axenic IC50): > 50 µM
- IC50 [6]: 4.4 µM
- Sensitivity of WT B. abortus in axenic conditions [7]: insensitive
- Sensitivity of ∆bepE B. abortus in axenic conditions [7]: insensitive
- Increase in intracellular calcium level [11]: 20–40%
- Increase in intracellular manganese level [11]: 20–40%
- Other metal levels in THP-1 cells [11]: Most metal levels remained unchanged
- Growth of WT B. ovis in liquid culture [8]: modest lag
- Effect of bepE disruption on B. abortus sensitivity on solid media [5]: did not affect sensitivity
- Effect of bepE deletion on B. abortus sensitivity in THP-1 cells [9]: did not alter sensitivity
- Wild-type B. abortus CFUs recovered from treated THP-1 cells compared to untreated controls [9]: significantly fewer
- CC50 [3]: 49 µM
- THP-1 host cell viability [3]: does not affect THP-1 host cell viability

Structure (SMILES): CC1(C)S[C@@H]2[C@H](NC(=O)Cc3ccccc3)C(=O)N2[C@H]1C(=O)O [Penicillin G]
- Increase in susceptibility of B. abortus on deletion of bepE (spot-titration on agar) [5]: approximately five
- Differential growth of B. abortus WT and ΔbepE in Biolog phenotype microarray [12]: markedly inhibiting ΔbepE but not WT growth

Structure (SMILES): CCOc1ccc(NC(C)=O)cc1 [Phenacetin]
- IC50 [1, 14]: > 50 µM
- IC50 ([2]; read-out: Axenic IC50): > 50 µM
- CC50 [3]: > 50 µM

Structure (SMILES): CC(=O)SCC(Cc1ccccc1)C(=O)NCC(=O)OCc1ccccc1 (stereo not drawn) [Racecadotril]
- IC50 [1, 14]: > 50 µM
- IC50 ([2]; read-out: Axenic IC50): > 50 µM
- CC50 [3]: > 50 µM

Structure (SMILES): CCCCCCCCCCCCOS(=O)(=O)[O-].[Na+] [SDS, sodium dodecyl sulfate]
- Sensitivity of wild-type B. ovis on TSA blood plates [4]: highly sensitive

Structure (SMILES): CC1(C)S[C@@H]2[C@H](NC(=O)C(C(=O)O)c3ccccc3)C(=O)N2[C@H]1C(=O)O (stereo partly drawn) [carbenicillin]
- Sensitivity of wild-type B. ovis on TSA blood plates [4]: moderately sensitive

Structure (SMILES): COC(=O)C1=C(C)NC(C)=C(C(=O)OC)C1c1ccccc1[N+](=O)[O-] [nifedipine]
- Hit status in B. ovis intracellular screen [13]: neither compound emerged as a hit

Structure (SMILES): COc1ccc(CCN(C)CCCC(C#N)(c2ccc(OC)c(OC)c2)C(C)C)cc1OC (stereo not drawn) [verapamil]
- Hit status in B. ovis intracellular screen [13]: neither compound emerged as a hit

Source: PMC12306736 (PLOS Genetics, 2025)
